Consider 17 compounds from US20260325540A1 (priority 2023, published 2026).

Structures are written as SMILES.

In one assay the target is SARS-CoV-2 3CLpro (Severe acute respiratory syndrome coronavirus 2, UniProt P0DTD1). In words: FRET based protease assay, SARS-CoV-2 3CL. Format: biochemical, SARS-CoV-2 (strain BetaCoV/Wuhan/WIV04/2019).
The target in the next assay is MERS-CoV 3CLpro (Middle East respiratory syndrome-related coronavirus, UniProt K9N638). In words: biochemical. The note with it: MERS IC50, 75 nM MERS-CoV 3CLpro, 6 μM peptide 1 substrate, 25° C., 1.5 hrs, pH 7.5.
Chain of MERS-CoV 3CLpro (K9N638 3248-3553 limits assumed): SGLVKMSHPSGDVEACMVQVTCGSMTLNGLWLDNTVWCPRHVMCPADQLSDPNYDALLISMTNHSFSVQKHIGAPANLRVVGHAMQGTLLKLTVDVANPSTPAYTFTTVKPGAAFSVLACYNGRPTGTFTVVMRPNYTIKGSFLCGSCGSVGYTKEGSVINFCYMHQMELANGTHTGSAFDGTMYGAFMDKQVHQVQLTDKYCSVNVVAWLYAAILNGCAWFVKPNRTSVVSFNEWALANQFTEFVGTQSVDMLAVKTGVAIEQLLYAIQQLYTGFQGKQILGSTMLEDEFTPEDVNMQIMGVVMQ

One may read the IC50 as the point on the concentration scale where inhibition reaches its midpoint. Low values mean higher potency, high ones lower potency. For the compound `CC(C)C[C@@H]1NC(=O)[C@@H](NC(=O)OC(C)(C)C)CCC[C@H]2CNC(=O)[C@@H]2C[C@@H](C=O)NC1=O` [Example 19], the IC50 against SARS-CoV-2 3CLpro is below 100 nM; on MERS-CoV 3CLpro, 100 to 1000 nM.

Regarding `CC(C)(C)NC(=O)[C@@H]1CCCC[C@H]2CNC(=O)[C@H]2C[C@@H](C#N)NC(=O)[C@@H]2[C@@H]3[C@H](CN2C1=O)C3(C)C` [Example 166], the IC50 against SARS-CoV-2 3CLpro was 1000 to 20000 nM; against MERS-CoV 3CLpro it was above 20000 nM.

For the compound `CC1(C)[C@@H]2[C@H]3C(=O)N[C@H](C#N)C[C@@H]4C(=O)NC[C@@H]4CCCC[C@H](NC(=O)OC4(C(F)(F)F)CCC4)C(=O)N3C[C@@H]21` [Example 152], the IC50 on SARS-CoV-2 3CLpro and at MERS-CoV 3CLpro was below 100 nM in each case.

Consider `CC1(C)[C@@H]2[C@H]3C(=O)N[C@H](C#N)C[C@@H]4C(=O)NC[C@@H]4CCCC[C@H](N)C(=O)N3C[C@@H]21` [Example 161], for which the IC50 lay within 100 to 1000 nM on SARS-CoV-2 3CLpro and 1000 to 20000 nM on MERS-CoV 3CLpro.

With `CC1(C)[C@@H]2[C@H]3C(=O)N[C@H](C#N)C[C@@H]4C(=O)NC[C@@H]4CCCC[C@H](NC(=O)c4ccncn4)C(=O)N3C[C@@H]21` [Example 91], the IC50 against SARS-CoV-2 3CLpro and against MERS-CoV 3CLpro was below 100 nM in each case.

`CC(C)(C)OC(=O)N[C@H]1CCCC[C@H]2CNC(=O)[C@H]2C[C@@H](C#N)NC(=O)[C@@H]2[C@H]3CCC[C@H]3CN2C1=O` [Example 79]: the IC50 against SARS-CoV-2 3CLpro was below 100 nM; at MERS-CoV 3CLpro it was 100 to 1000 nM.

Regarding `CC(C)C[C@@H]1NC(=O)CCCCCC[C@H]2CNC(=O)[C@@H]2C[C@@H](C=O)NC1=O` [Example 48], the IC50 at SARS-CoV-2 3CLpro and against MERS-CoV 3CLpro was 100 to 1000 nM each time.

In the case of `CCO[C@@H]1C[C@H]2C(=O)N[C@H](C#N)C[C@@H]3C(=O)NC[C@@H]3CCCC[C@H](NC(=O)OC(C)(C)C)C(=O)N2C1` [Example 144], the IC50 at SARS-CoV-2 3CLpro is below 100 nM; against MERS-CoV 3CLpro, 1000 to 20000 nM.

As to `CC(C)C[C@@H]1NC(=O)[C@@H](NC(=O)C(C)(C)C)CCCC[C@H]2CNC(=O)[C@@H]2C[C@@H](C#N)NC1=O` [Example 54], the IC50 against SARS-CoV-2 3CLpro and on MERS-CoV 3CLpro was 100 to 1000 nM throughout.

Consider `CN1C[C@@H]2CCCC[C@H](NC(=O)OC(C)(C)C)C(=O)N3C[C@H]4[C@@H]([C@H]3C(=O)N[C@H](C#N)C[C@@H]2C1=O)C4(C)C` [Example 140], for which the IC50 at SARS-CoV-2 3CLpro and against MERS-CoV 3CLpro was 100 to 1000 nM each time.

On to `CC(C)C[C@@H]1NC(=O)[C@@H](Cc2ccccc2)CCCC[C@H]2CNC(=O)[C@H]2C[C@@H](C#N)NC1=O` [Example 39], for which the IC50 lay in the range of 100 to 1000 nM against SARS-CoV-2 3CLpro and 1000 to 20000 nM against MERS-CoV 3CLpro.

Consider `CC(C)(C)C(=O)N[C@H]1CCCC[C@H]2CNC(=O)[C@H]2C[C@@H](C#N)NC(=O)[C@H](C2CCCC2)NC1=O` [Example 80], for which the IC50 at SARS-CoV-2 3CLpro and against MERS-CoV 3CLpro was 100 to 1000 nM each time.

As to `CC(C)(C)OC(=O)NN1CCCC[C@H]2CNC(=O)[C@H]2C[C@@H](C#N)NC(=O)[C@@H]2[C@@H]3[C@H](CN2C1=O)C3(C)C` [Example 168], the IC50 on SARS-CoV-2 3CLpro and against MERS-CoV 3CLpro was 1000 to 20000 nM in each case.

For the compound `CC(C)C[C@@H]1NC(=O)[C@@H](Cc2ccccc2)CCC[C@H]2CNC(=O)[C@@H]2C[C@@H](C#N)NC1=O` [Example 27], the IC50 against SARS-CoV-2 3CLpro and at MERS-CoV 3CLpro was 1000 to 20000 nM each time.

On to `CC1(C)[C@@H]2[C@H]3C(=O)N[C@H](C#N)C[C@@H]4C(=O)NCC[C@@H]4CCCC[C@H](NC(=O)c4ccc(F)cc4F)C(=O)N3C[C@@H]21` [Example 129], for which the IC50 at SARS-CoV-2 3CLpro and against MERS-CoV 3CLpro was below 100 nM throughout.

As to `CC1(C)[C@@H]2[C@H]3C(=O)N[C@H](C#N)C[C@@H]4C(=O)NC[C@@H]4CCCC[C@H](NC(=O)C4CCOCC4)C(=O)N3C[C@@H]21` [Example 85], the IC50 against SARS-CoV-2 3CLpro and on MERS-CoV 3CLpro was below 100 nM each time.

Take `CC(C)(C)OC(=O)N[C@H]1CCC[C@H]2CNC(=O)[C@H]2C[C@@H](C#N)NC(=O)[C@@H]2[C@@H]3[C@H](CN2C(=O)C1)C3(C)C` [Example 125]: the results for the IC50 at SARS-CoV-2 3CLpro and on MERS-CoV 3CLpro were 1000 to 20000 nM and above 20000 nM, respectively.
